Results on four molecules are retold here after article PMC10733463, “Berberine-microbiota interplay: orchestrating gut health through modulation of the gut microbiota and metabolic transformation into bioactive metabolites” (Frontiers in Pharmacology, 2023).

Data set [1] is described as follows: UPLC-MS/MS quantification of berberine and metabolites in ileal and caecal content. The following applies: 21 days. Format: in vivo, Ross 308 broiler chickens. From the text: (§1) The study was undertaken following the guidelines of the ethics committee of the Faculty of Veterinary Medicine and Bioscience Engineering, Ghent University, in accordance with the EU Directive 2010/63/EU. One-day-old Ross 308 male broilers were obtained from a local hatchery and housed in pens on wood shavings. They were allotted into 4 groups, with three replicate pens per group each housing 8 chickens. The animals were not vaccinated. Water and commercial starter feed (day 1–12, FARM 1 Mash, Country’s Best, Versele Laga, Deinze, Belgium) or grower (day 13–21, FARM 2 mash, Country’s Best, Versele Laga, Deinze, Belgium) were provided ad libitum. The control group received the standard non-supplemented diets, whereas the chickens in other groups were fed the same feed supplemented with 0.1, 0.5 or 1 g berberine/kg feed throughout the whole trial period. At day 21, 4 birds per pen were weighted then euthanized by sodium pentobarbital injection for sampling. Individual jejunal, ileal, caecal and colonic contents were stored at −20°C for microbiota composition analysis (16S rRNA gene sequencing). Additionally, ileal and caecal content samples were collected and stored at −20°C for berberine and berberine-derived metabolite quantification. Duodenal tissue samples were collected and fixed in 4% phosphate buffered formaldehyde for histological analysis. Blood samples were collected in heparin tubes and centrifuged at 524 g for 10 min to recover the plasma fraction, which was further mixed with 17 mg/mL L-ascorbic acid for dihydroberberine stabilization, and stored at −20°C for berberine and berberine-derived metabolite quantification.
(§2) The column temperature was maintained at 25°C. The autosampler temperature was set at 10°C.
250 mg of ileal or caecal content was weighed in a 15 mL polypropylene centrifuge tube and 250 µL of ascorbic acid 170 mg/mL solution was added for stabilization of dihydroberberine, followed by brief vortexing. Subsequently, 25 µL of an internal standard solution containing 250 μg/mL of berberine-d6 and 2.5 μg/mL tetrahydropalmatine were added, followed by brief vortexing. A 2.5 mL volume of extraction solvent was then added, consisting of a 1% (v/v) formic acid solution in methanol. The sample was put on a rotary shaker set at 80 rpm for 20 min, followed by centrifugation (3,720 g, 10 min, 4°C). The supernatant was then diluted, by a factor 5 for measurement of low abundance components, and by a factor 2,000 for measurement of high abundance components. The 1/5 diluted sample extract was prepared directly in an autosampler vial as follows: 200 µL sample extract were mixed with 100 µL ascorbic acid 170 mg/mL solution and 700 µL Milli-Q water. For the 1/2,000 diluted sample extract, an intermediate 1/100 sample dilution was prepared by combining 500 µL sample extract and 49.5 mL of Milli-Q water. 50 μL was then transferred in an autosampler vial followed by the addition of 950 µL of Milli-Q water. For both dilutions, a 5 µL sample aliquot was injected onto the UPLC-MS/MS apparatus. Quantification was based on the ratio of the analyte peak area compared to the peak area of the internal standard tetrahydropalmatine for 1/5 diluted sample extracts, and on the ratio of the analyte peak area compared to the peak area of the internal standard berberine-d6 for 1/2,000 diluted sample extracts.
Calibration standards and quality control samples were prepared as follows: 250 mg of blank ileal or caecal content were supplemented with 250 µL of ascorbic acid 170 mg/mL solution, 25 µL mixed solution of berberine and metabolites (with the exception of dihydroberberine) at different levels, 25 µL of dihydroberberine solution, stabilized with 17 mg/mL ascorbic acid, at different levels and 25 µL of an internal standard solution containing 0.625 μg/mL of berberine-d6 and 2.5 μg/mL tetrahydropalmatine. The calibration curve was in the 62.5–5,000 ng/g range, and included 62.5, 125, 250, 500, 1,000, 2,500, and 5,000 ng/g levels. […]

A short description of data set [2]: UPLC-MS/MS quantification of berberine and metabolites in plasma. Format: in vivo, Ross 308 broiler chickens. The settings on record: chickens fed 0.1, 0.5 or 1 g berberine/kg feed for 21 days; LOQ 0.1 ng/mL.
Description: as §1, §2
A 137.5 µL plasma sample containing 17 mg/mL L-ascorbic acid was used for sample extraction. The ascorbic acid solution was added to prevent oxidation of dihydroberberine to berberine during sample storage ([Feng et al., 2015]). The plasma sample was transferred to an OstroTM 96 well-plate (25 mg) (Waters). Subsequently, 50 µL Milli-Q water and 25 µL of an internal standard solution containing 100 ng/mL of both berberine-d6 and tetrahydropalmatine were added. A 640 µL volume of 1% (v/v) formic acid solution in acetonitrile (1/3 ratio) was added, followed by gentle mixing. Vacuum was applied on the Ostro™ plate for 5 min and the eluate was collected in a 2 mL square 96-well collector plate. The sample was transferred in a glass tube and evaporated at 40°C under a gentle stream of nitrogen in a Pierce (Rockford, United States) Reacti-Therm III™ Heating Module and Reacti-Vap™ III Module. The dried sample extract was reconstituted in 500 µL Milli-Q water, followed by injection of a 5 µL sample aliquot onto the UPLC-MS/MS apparatus. Quantification was based on the ratio of the analyte peak area compared to the peak area of the internal standard berberine-d6.
Calibration standards and quality control samples were prepared as follows: 137.5 µL of blank plasma stabilized with 17 mg/mL L-ascorbic acid were supplemented with 25 µL mixed working solutions of berberine and metabolites (except dihydroberberine) at different levels, 25 µL of dihydroberberine working solution, stabilized with 17 mg/mL L-ascorbic acid, at different levels and 25 µL of an internal standard solution containing 100 ng/mL of both berberine-d6 and tetrahydropalmatine. The calibration curve was in the 0.1–100 ng/mL range, including 0.1, 0.5, 1, 2.5, 5, 10, 25, […], 50 and 100 ng/mL levels.
The UPLC-MS/MS analysis method for the quantification of berberine and berberine-derived metabolites both in plasma and ileal/caecal intestinal content was validated to the guidelines of the European Medicines Agency, i.e., of the Committee for Veterinary Medicinal Products (EMEA/CVMP/VICH/463202/2009) and of the Committee for Medicinal Products for Human Use (EMEA/CHMP/EWP/192217/20), and in accordance with the EU Directive 2002/657/EC. […]

In data set [3] the test system is B. coccoides (DSM 935). The following applies: Blautia coccoides, 10 µg/mL, pH 6.
For data set [4] the following is noted: rats, oral administration of berberine; cited from earlier work.
Data set [5] has as its system Blautia hydrogenotrophica (DSM 10507). The settings on record: DSM 10507, chicken, 10 µg/mL, pH 6. As to the method:
(§3) Six strains were tested for their ability to convert berberine into berberine-demethylated metabolites. […] Strains were sub-cultured overnight in M2GSC medium pH 6. The next day, caecal content from a 3-week-old broiler chicken was sampled in anaerobic conditions and 1:1,000 diluted in M2GSC medium pH 6 containing 10 μg/mL berberine. Caecal mixtures were enriched with 1:100 diluted overnight cultures of single bacteria, or with M2GSC (control), and incubated in a 24-well plate, for 48 h. […] Samples were collected and processed as described before. Each bacterial strain was tested in triplicate at 37°C–40°C under anaerobic conditions.
(§4) The UPLC instrument consisted of an Acquity H-Class Quaternary Solvent Manager and an Acquity FTN Sample Manager (Waters, Berchem, Belgium). For chromatographic separation, an Acquity UPLC® HSS T3 column (1.8 µm, 100 mm × 2.1 mm i.d.) was used, protected by a precolumn of the same type (VanGuardTM, 5 mm × 2.1 mm i.d.), both from Waters. […] The column temperature was maintained at 25°C. The autosampler temperature was set at 10°C. The UPLC effluent was sent from 1.2 min to 9.5 min by use of a divert valve to a Xevo TQ-S® triple quadrupole mass spectrometer from Water, equipped with an ESI ion source operating in the positive ionization mode from. The UPLC-MS/MS analysis was run under control of MassLynx software (v4.1), which was used for subsequent data processing as well. For the injection of 1/5 diluted intestinal content samples (see section Preparation of intestinal content samples (ileum and caecum)), the divert valve was used in addition from 7.1 min to 8.4 min to deviate the high amount of berberine and associated IS berberine-d6 eluting in that time window from the UPLC column directly to the waste, rather than to the MS detector to avoid oversaturation of the instrument, influencing subsequent sample extract injections at well. Operating conditions for the ESI source used in the positive ionization mode were optimized by direct infusion of all individual components in combination with the mobile phase at 50% A/50% B delivered at a flow rate of 0.3 mL/min. The following tune parameters were used for detection of all components: capillary voltage, 3 kV, cone voltage, 10 V, source offset, 50 V, source temperature, 150°C, desolvation temperature, 500°C, desolvation gas flow, 800 L/h, cone gas flow, 150 L/h, collision gas flow, 0.2 mL/min, ion energy 1 and 2, 0.5, LM 1 and LM 2 resolution, 3, HM 1 and HM 2 resolution, 15. Components were detected in MS/MS mode using component specific MRM (Multiple Reaction Monitoring) transitions (Supplementary Table S1). Since a commercial standard of thalifendine was not available, MS/MS detection parameters and calibration of berberrubine were used for the detection and quantification of thalifendine, which is a reasonable approach, since both compounds are isomers. No commercial reference standards were available for phase II metabolites, therefore “calculated” MRM transitions were defined as follows: [M + -Gluc] > M+ for glucuronide forms and [M + -SO3] > M+ for sulfate forms, where the loss of glucuronic acid or sulfate corresponded to a mass shift of 176 Da or 80 Da respectively. Phase II metabolites were quantified relatively using the berberine calibration curve ([Wang et al., 2017a]; [Kwon et al., 2020]).

Data set [6] deals with Blautia luti (DSM 14534). The settings on record: DSM 14534, chicken, 10 µg/mL, pH 6. Here is the method:
as §3, §4

Data set [7] relates to B. coccoides (DSM 935). The settings on record: DSM 935, chicken, 10 µg/mL, pH 6. Here is the method:
as §3, §4

Data set [8] concerns Eubacterium limosum (LMG 28910). The following applies: LMG 28910, chicken, 10 µg/mL, pH 6. As to the method:
as §3, §4

The test system of data set [9] is Blautia hansenii (DSM 20583). The following applies: DSM 20583, chicken, 10 µg/mL, pH 6. Here is the method: as §3, §4
In data set [10] the test system is Anaerostipes butyraticus (35–7). The settings on record: 35-7, chicken, 10 µg/mL, pH 6. As to the method:
as §3, §4

Data set [11] has as its system Caco-2 monolayers. Also noted: method as in Zhang et al., 2019. The settings on record: in vitro, among berberine metabolites; ref Zhang et al., 2019; cited from earlier work.

`COc1cc2c(cc1O)-c1cc3ccc(OC)c(OC)c3c[n+]1CC2` [Columbamine, columbamine]: the “Ratio caecum / ileum (concentration)” value was 0.27 in data set [1] (0.1 g berberine/kg feed), 0.32 in data set [1] (0.5 g berberine/kg feed) and 0.44 in [1] (1 g berberine/kg feed). Also, the Detection in plasma result in data set [2] was “below LOQ”.
In the case of `COc1ccc2cc3[n+](cc2c1OC)CCc1cc(O)c(O)cc1-3` [Demethyleneberberine], the “Log2(fold change) of metabolite response at 48 h, B. coccoides pure culture over berberine-medium” value in data set [3] is on record as 1.71. Besides, the “Ratio caecum / ileum (concentration)” value in data set [1] (0.1 g berberine/kg feed) worked out at 15.66; in data set [1] (0.5 g berberine/kg feed), 30.48; in data set [1] (1 g berberine/kg feed), 32.10. For the same molecule, the “Amount quantified in feces” value in data set [4] is listed as 1.49%. The “Log2(fold change) of metabolite response at 48 h, culture with bacteria over control (berberine-medium + microbiota)” value is -3.33e-003 in data set [5]; 1.34 in [6]; 1.07 in data set [7]; 0.21 in [8]; -0.02 in [9]; 0.15 in data set [10]. Besides, in [11], the “Permeability across Caco-2 monolayers” value is on record as “most permeable”.
`COc1c(O)ccc2cc3[n+](cc12)CCc1cc2c(cc1-3)OCO2` [Thalifendine]: in data set [3], the “Log2(fold change) of metabolite response at 48 h, B. coccoides pure culture over berberine-medium” value worked out at 9.30. Moreover, the results for the “Ratio caecum / ileum (concentration)” value in data set [1] (0.1 g berberine/kg feed), in [1] (0.5 g berberine/kg feed) and in [1] (1 g berberine/kg feed) were 6.68, 29.03 and 21.17, respectively. Besides, the “Log2(fold change) of metabolite response at 48 h, culture with bacteria over control (berberine-medium + microbiota)” value in data set [5] is 0.26; in [6], -1.30; in data set [7], 4.46; in data set [8] it was 1.37; in data set [9] it was 0.34; in data set [10], 0.21. In addition, the “Permeability across Caco-2 monolayers” value in data set [11] is listed as “most permeable”.
As to `COc1cc2c(cc1OS(=O)(=O)[O-])-c1cc3ccc(OC)c(OC)c3c[n+]1CC2` [columbamine-sulfate], the Detection in plasma entry in [2] is listed as “not detected”.
